Tested on: human Kv3.1 channels
Assay: Kv3.1 channel modulation, IonWorks Quattro planar array electrophysiology in HEK-hKv3.1 cells
Format: cell-based
Details: hKv3.1 HEK cells, -15 mV step
Description: The ability of the compounds of the invention to modulate the voltage-gated potassium channel subtypes Kv3.3/Kv3.2/Kv3.1 may be determined using the following assay. Analogous methods may be used to investigate the ability of the compounds of the invention to modulate other channel subtypes.
To assess compound effects on human Kv3.1 channels (hKv3.1): Human embryonic kidney (HEK)-hKv3.1 cell line is generated by transfecting HEK-293 cells with an expression vector with human Kv3.1 (NM_004976.4). Cells are cultured with MEM supplemented with 10% Heat-Inactivated FBS, 2 mM L-glutamine, 1% Penicillin-Streptomycin, and 0.6 mg/ml of Geneticin (G418). HEK-hKv3.1b cells were amplified in T175 cm2 flask at 37° C. with 5% CO2, using MEM amplification medium, containing the G418 selection antibiotic (0.6 mg/ml). Cells were detached every 3-4 days, using DPBS to wash twice the flask, then TrypLE to dislodge the cells, and re-plated at a density of 2-4×10^6 cells/flask.
The day of the experiment, cells are removed from the incubator and the culture medium removed. […]
Experiments are conducted at r.t. using IonWorks Quattro™ planar array electrophysiology technology (Molecular Devices Corp.) with PatchPlate™ PPC. […] Planar electrode hole resistances (Rp) are determined by applying a 10 mV voltage step across each well. […]

Kv3.1 pEC50 (EC50 = 50% of maximum increase by reference compound): 5.10
Structure (SMILES): CC[C@@H]1NC(=O)N(c2cnc(Oc3ccc(C)c4c3C3(CC3)CO4)cn2)C1=O [Example 15, (5S)-5-ethyl-3-[5-(7-methylspiro[2H-benzofuran-3,1′-cyclopropane]-4-yl)oxypyrazin-2-yl]imidazolidine-2,4-dione]
Kv3.1 max R % (normalised to maximum effect of reference compound (50 microM)): 136%
